Data reported in patent US10954253B2, “1,2-dihydro-3H-pyrazolo[3,4-d]pyrimidin-3-one derivative as Wee1 inhibitor” (SHIJIAZHUANG SAGACITY NEW DRUG DEVELOPMENT CO., LTD., priority 2017, dated 2021).

Biological target: Wee1 (Homo sapiens (Human), UniProt P30291)
Assay: In vitro enzymatic inhibitory activity (33P-ATP filter-binding kinase assay, MBP substrate)
Format: biochemical
Conditions: Wee-1 150 nM, MBP 20 μM
Experimental: The compounds of the present invention for experimental use were all self-prepared, and their chemical names and structural formulas are shown in the preparation embodiments of the respective compounds. The experimental tests were carried out in Reaction Biology Corporation, USA, and the experimental results were provided by the company. Basic reaction buffer: 20 mM hydroxyethylpiperazine ethanesulfuric acid (pH 7.5), 10 mM magnesium chloride, 1 mM EGTA, 0.02% Brij35, 0.02 mg/mL bovine serum albumin, 0.1 mM Na3VO4, 2 mM DTT, 1% DMSO Enzyme: Wee-1 concentration is 150 nM Matrix: MBP concentration is 20 μM The tested compound was formulated into a 5 mM solution with 100% DMSO, and a 10 points 3-fold gradient dilution was performed with DMSO through an automated pipetting station epMotion 5070. 1. Fresh matrix configuration reaction buffer was prepared; 2. The Wee-1 was added into the matrix solution and shaked gently; 3. DMSO solution of the compound were added into the kinase reaction mixture using an acoustic technique (Echo 550; nanoliter range) and incubated for 20 minutes at room temperature; 4. ^33P-ATP (specific activity, 10 μCi/μL) was added into the reaction mixture to stimulate the reaction; 5. Incubated for 2 hours at room temperature; 6. Kinase activity was detected by filter-binding method.

Sequence of Wee1 (P30291 whole entry): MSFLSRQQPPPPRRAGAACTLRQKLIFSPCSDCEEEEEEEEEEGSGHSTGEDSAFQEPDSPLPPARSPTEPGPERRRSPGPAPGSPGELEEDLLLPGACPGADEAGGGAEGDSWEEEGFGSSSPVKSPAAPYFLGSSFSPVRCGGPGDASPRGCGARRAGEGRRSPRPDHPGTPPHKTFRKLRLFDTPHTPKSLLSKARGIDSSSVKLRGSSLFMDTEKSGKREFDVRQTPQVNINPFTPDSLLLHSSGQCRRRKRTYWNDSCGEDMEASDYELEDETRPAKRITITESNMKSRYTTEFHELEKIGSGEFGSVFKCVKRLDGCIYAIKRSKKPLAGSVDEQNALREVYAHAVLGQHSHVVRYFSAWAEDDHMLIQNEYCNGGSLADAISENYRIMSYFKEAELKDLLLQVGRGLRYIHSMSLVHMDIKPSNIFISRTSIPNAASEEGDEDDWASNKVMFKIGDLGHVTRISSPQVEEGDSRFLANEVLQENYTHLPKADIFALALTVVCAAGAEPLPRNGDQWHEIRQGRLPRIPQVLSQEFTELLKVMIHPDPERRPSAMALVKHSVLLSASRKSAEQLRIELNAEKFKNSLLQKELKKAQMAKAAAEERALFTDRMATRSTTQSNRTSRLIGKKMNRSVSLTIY

Compound | IC50 [nM]
C=CCn1c(=O)c2cnc(Nc3ccc(N4CCC5(CCN(C)CC5)CC4)cc3)nc2n1-c1cccc(C2(O)CCC2)n1 [Embodiment 40, 2-allyl-1-(6-(1-hydroxycyclobutyl)pyridin-2-yl)-6-((4-(9-methyl-3,9-diazaspiro[5.5]undecan-3-yl)phenyl)amino)-1H-pyrazolo[3,4-d]pyrimidin-3(2H)-one] | 30.7
C=CCn1c(=O)c2cnc(Nc3ccc(N4CCC5(CCN(C)CC5)CC4)cc3)nc2n1-c1cccc(C(C)(O)C(F)(F)F)n1 (stereo not shown) [Embodiment 41, 2-allyl-6-((4-(9-methyl-3,9-diazaspiro[5.5]undecan-3-yl)phenyl)amino)-1-(6-(1,1,1-trifluoro-2-hydroxypropan-2-yl)pyridin-2-yl)-1H-pyrazolo[3,4-d]pyrimidin-3(2H)-one] | 13.1
C=CCn1c(=O)c2cnc(Nc3ccc(N4CCC5(CCN(C)CC5)CC4)cc3)nc2n1-c1cccc(C2(O)COC2)n1 [Embodiment 42, 2-allyl-1-(6-(3-hydroxyoxetan-3-yl)pyridin-2-yl)-6-((4-(9-methyl-3,9-diazaspiro[5.5]undecan-3-yl)phenyl)amino)-1H-pyrazolo[3,4-d]pyrimidin-3(2H)-one] | 17.4
C=CCn1c(=O)c2cnc(Nc3ccc(N4CCC5(CCN(C)CC5)CC4)cc3)nc2n1-c1cccc(N2CCCC2=O)n1 [Embodiment 44] | 12.6
C=CCn1c(=O)c2cnc(Nc3ccc(N4CCC5(CCN(C)CC5)CC4)cc3)nc2n1-c1cccc(C2CC2)n1 [Embodiment 45, 2-allyl-1-(6-cyclopropylpyridin-2-yl)-6-((4-(9-methyl-3,9-diazaspiro[5.5]undecan-3-yl)phenyl)amino)-1H-pyrazolo[3,4-d]pyrimidin-3(2H)-one] | 7.4
C=CCn1c(=O)c2cnc(Nc3ccc(N4CCC5(CCN(C)CC5)CC4)cc3)nc2n1-c1cccc(C(F)(F)F)n1 [Embodiment 46, 2-allyl-6-((4-(9-methyl-3,9-diazaspiro[5.5]undecane-3-yl)phenyl)amino)-1-(6-(trifluoromethyl)pyridin-2-yl)-1H-pyrazolo[3,4-d]pyrimidine-3(2H)-one] | 44.6
C=CCn1c(=O)c2cnc(Nc3ccc(N4CCC5(CCN(C)CC5)CC4)cc3)nc2n1-c1cccc(OC)n1 [Embodiment 47, 2-allyl-1-(6-methoxypyridin-2-yl)-6-((4-(9-methyl-3,9-diazaspiro[5.5]undecan-3-yl)phenyl)amino)-1H-pyrazolo[3,4-d]pyrimidin-3(2H)-one] | 3
C=CCn1c(=O)c2cnc(Nc3ccc(N4CCC5(CCN(C)CC5)CC4)cc3)nc2n1-c1cccc(OC(C)C)n1 [Embodiment 48, 2-allyl-1-(6-isopropoxypyridin-2-yl)-6-((4-(9-methyl-3,9-diazaspiro[5.5]undecan-3-yl)phenyl)amino)-1H-pyrazolo[3,4-d]pyrimidin-3(2H)-one] | 6.3
C=CCn1c(=O)c2cnc(Nc3ccc(N4CCC5(CCN(C)CC5)CC4)cc3)nc2n1-c1cccc(C(C)(F)F)n1 [Embodiment 49, 2-allyl-1-(6-(1,1-difluoroethyl)pyridin-2-yl)-6-((4-(9-methyl-3,9-diazaspiro[5.5]undecan-3-yl)phenyl)amino)-1H-pyrazolo[3,4-d]pyrimidin-3(2H)-one] | 3.1
C=CCn1c(=O)c2cnc(Nc3ccc(N4CCC5(CCN(C)CC5)CC4)cc3)nc2n1-c1cccc(OC2CC2)n1 [Embodiment 50, 2-allyl-1-(6-cyclopropoxypyridin-2-yl)-6-((4-(9-methyl-3,9-diazaspiro[5.5]undecan-3-yl)phenyl)amino)-1H-pyrazolo[3,4-d]pyrimidin-3(2H)-one] | 2.5
C=CCn1c(=O)c2cnc(Nc3ccc(N4CCC5(CCN(C)CC5)CC4)cc3)nc2n1-c1cccc(OCC)n1 [Embodiment 51, 2-allyl-1-(6-ethoxypyridin-2-yl)-6-((4-(9-methyl-3,9-diazaspiro[5.5]undecan-3-yl)phenyl)amino)-1H-pyrazolo[3,4-d]pyrimidin-3(2H)-one] | 2.8
C=CCn1c(=O)c2cnc(Nc3ccc(N4CCC5(CCN(C)CC5)CC4)cc3)nc2n1-c1cccc(O[C@@H]2CCOC2)n1 [Embodiment 52, (R)-2-allyl-6-((4(9-methyl-3,9-diazaspiro[5.5]undecan-3-yl)phenyl)amino)-1-(6-((tetrahydrofuran-3-yl)oxy)pyridin-2-yl)-1H-pyrazolo[3,4-d]pyrimidin-3(2H)-one] | 71
C=CCn1c(=O)c2cnc(Nc3ccc(N4CCC5(CCN(C)CC5)CC4)cc3)nc2n1-c1cccc(OC2COC2)n1 [Embodiment 53, 2-allyl-6-((4(9-methyl-3,9-diazaspiro[5.5]undecan-3-yl)phenyl)amino)-1-(6-(oxetan-3-yloxy)pyridin-2-yl)-1H-pyrazolo[3,4-d]pyrimidin-3(2H)-one] | 63
C=CCn1c(=O)c2cnc(Nc3ccc(N4CCC5(CCN(C)CC5)CC4)cc3)nc2n1-c1cccc(OC2CCC2)n1 [Embodiment 54, 2-allyl-1-(6-cyclobutoxypyridin-2-yl)-6-((4-(9-methyl-3,9-diazaspiro[5.5]undecan-3-yl)phenyl)amino)-1H-pyrazolo[3,4-d]pyrimidin-3(2H)-one] | 57
C=CCn1c(=O)c2cnc(Nc3ccc(N4CCC5(CCN(C)CC5)CC4)cc3)nc2n1-c1cccc(O[C@H]2CCOC2)n1 [Embodiment 55, (S)-2-allyl-6-((4(9-methyl-3,9-diazaspiro[5.5]undecan-3-yl)phenyl)amino)-1-(6-((tetrahydrofuran-3-yl)oxy)pyridin-2-yl)-1H-pyrazolo[3,4-d]pyrimidin-3(2H)-one] | 90
C=CCn1c(=O)c2cnc(Nc3ccc(N4CCC5(CCN(C)CC5)CC4)cc3)nc2n1-c1cccc(N2CCN(C)C2=O)n1 [Embodiment 56] | 74
C=CCn1c(=O)c2cnc(Nc3ccc(N4CCC5(CCN(C)CC5)CC4)cc3)nc2n1-c1cccc(N2CCOC2=O)n1 [Embodiment 57, 3-(6-(2-allyl-6((4-(9-methyl-3,9-diazaspiro[5.5]undecan-3-yl)phenyl)amino)-3-oxo-2,3-dihydro-1H-pyrazolo[3,4-d]pyrimidin-1-yl)pyridin-2-yl)oxazolidin-2one] | 47
C=CCn1c(=O)c2cnc(Nc3ccc(N4CCC5(CCN(C)CC5)CC4)cc3)nc2n1-c1cccc(N2CCNC2=O)n1 [Embodiment 58, 2-allyl-6-((4(9-methyl-3,9-diazaspiro[5.5]undecan-3-yl)phenyl)amino)-1-(6-(2-oxo-1-imidazolidinyl)pyridin-2-yl)-1H-pyrazolo[3,4-d]pyrimidin-3(2H)-one] | 73
C=CCn1c(=O)c2cnc(Nc3ccc(N4CCC5(CCN(C)CC5)CC4)cc3)nc2n1-c1cccc(P(C)(C)=O)n1 [Embodiment 59, 2-allyl-1-(6-(dimethylphosphory)pyridin-2-yl)-6-((4-(9-methyl-3,9-diazaspiro[5.5]undecan-3-yl)phenyl)amino)-1H-pyrazolo[3,4-d]pyrimidin-3(2H)-one] | 22.6
C=CCn1c(=O)c2cnc(Nc3ccc(N4CCC5(CCN(CCF)CC5)CC4)cc3)nc2n1-c1cccc(C(C)(C)O)n1 [Embodiment 60] | 14.8
C=CCn1c(=O)c2cnc(Nc3ccc(N4CCC5(CCN(CC(F)F)CC5)CC4)cc3)nc2n1-c1cccc(C(C)(C)O)n1 [Embodiment 61] | 15.7
C=CCn1c(=O)c2cnc(Nc3ccc(N4CCC5(CCN(CCC#N)CC5)CC4)cc3)nc2n1-c1cccc(C(C)(C)O)n1 [Embodiment 62, 3-(9-(4((2-allyl-1(6-(2-hydroxypropan-2-yl)pyridin-2-yl)-3-oxo-2,3-dihydro-1H-pyrazolo[3,4-d]pyrimidin-6-yl)amino)phenyl)-3,9-diazaspiro[5.5]undecan-3-yl)propionitrile] | 36.1
